# Read-outs that look alike come from different tables or passages of the source.
# Legend:
# [1] = target: T1, BTK (Homo sapiens, UniProt Q06187); assay: BTK degradation in TMD-8 cells (HTRF assay); assay type: cell-based; settings: 6 h treatment, IC50 (DC50) of BTK degradation
# T1 construct: High control=Cell group with added DMSO and without compound, indicating microplate readings without BTK degradation; endogenous in cells; host or cells: TMD-8
# Protocol: (§1) TMD-8 cells were treated with compounds diluted in 0.2% DMSO, dilution was done according to the following protocol: (1) making 500× stock solution in DMSO from 1 mM by 6-fold dilution, total 8 doses were included; (2) making 2× solution in cell culture medium by transferring 0.5 μl 500× stock solution into 125 μl medium; (3) adding 15 μl of 2× solution to cells for incubation of 6 h.
# After 6 h treatment, 10 μl 4× lysis buffer was added to each well; the plate was sealed and incubated for 30 min at room temperature on a plate shaker; Once the cells was lysed, 16 μL of cell lysate were transferred to a PE 384-well HTRF detection plate; 4 μL of pre-mixed HTRF antibodies were added to each well; the plate was covered with a plate sealer, and then spinned at 1000 rpm for 1 min, then incubated overnight at room temperature; the results were read on BMG PheraStar with HTRF protocol (337 nm-665 nm-620 nm).
# The IC50 (DC50) value of a compound can be obtained by fitting the following equation
# (§2) wherein, X and Y are known values, and IC50, Hillslope, Top and Bottom are the parameters obtained by fitting with software. Y is the inhibition percentage (calculated from the equation), X is the concentration of the compound; IC50 is the concentration of the compound when the 50% inhibition is reached. The smaller the IC50 value is, the stronger the inhibitory ability of the compound is. Vice versa, the higher the IC50 value is, the weaker the ability the inhibitory ability of the compound is; Hillslope represents the slope of the fitted curve, generally around 1 *; Bottom represents the minimum value of the curve obtained by data fitting, which is generally 0%±20%; Top represents the maximum value of the curve obtained by data fitting, which is generally 100%±20%. The experimental data were fitted by calculating and analyzing with Dotmatics data analysis software.
# [2] = test system: HEK-293 cells; assay: HEK-293 cytotoxicity detection (CellTiter-Glo); assay type: cell-based
# Protocol: as §1, with “HEK-293 cells” for “TMD-8 cells”, “from 5” for “from 1”, “by 4-fold” for “by 6-fold”, “0.5 ul” for “0.5 μl”, “adding 50” for “adding 15”, “of 72” for “of 6”
# 25 μl of the CellTiter-Glo®Reagent [(Promega) -Cat No. G7572] was added to each well in the 96-well plate. The contents were mixed for 2 minutes on an orbital shaker to induce cell lysis. The plate was then allowed to incubate at room temperature for 10 minutes to stabilize luminescent signal. Luminescence was recorded on BMG PheraStar with luminescence protocol.
# The IC50 value of a compound can be obtained by fitting the following equation
# as §2, with “Wherein,” for “wherein,”
# [3] = Homo sapiens, HEK-293 cells, 72 h incubation, CellTiter-Glo luminescence, IC50 of cell proliferation inhibition, read-out: HEK293
# T1 sequence (Q06187 whole entry): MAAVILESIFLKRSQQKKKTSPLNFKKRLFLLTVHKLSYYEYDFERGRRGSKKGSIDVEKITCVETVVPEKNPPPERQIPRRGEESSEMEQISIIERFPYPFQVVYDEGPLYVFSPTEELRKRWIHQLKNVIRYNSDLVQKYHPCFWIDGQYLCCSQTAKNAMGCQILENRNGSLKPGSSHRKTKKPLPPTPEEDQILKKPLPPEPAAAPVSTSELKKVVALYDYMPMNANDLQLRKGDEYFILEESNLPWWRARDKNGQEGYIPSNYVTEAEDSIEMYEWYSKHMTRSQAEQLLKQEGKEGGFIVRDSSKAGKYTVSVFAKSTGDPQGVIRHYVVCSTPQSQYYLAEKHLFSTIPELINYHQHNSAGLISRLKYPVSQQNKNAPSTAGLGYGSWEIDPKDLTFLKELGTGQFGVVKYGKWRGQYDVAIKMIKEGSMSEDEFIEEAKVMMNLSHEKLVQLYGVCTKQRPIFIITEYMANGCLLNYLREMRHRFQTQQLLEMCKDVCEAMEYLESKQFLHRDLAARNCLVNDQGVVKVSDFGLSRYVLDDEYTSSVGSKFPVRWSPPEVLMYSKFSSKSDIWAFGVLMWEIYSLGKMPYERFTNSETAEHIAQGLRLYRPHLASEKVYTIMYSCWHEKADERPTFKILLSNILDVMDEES
Molecule,DC50 [1],"IC50 ([2]; Homo sapiens, HEK293, 72 h, read-out: HEK293 (nM))","IC50 ([2]; HEK-293 cells, 72 h incubation, CellTiter-Glo luminescence, IC50 of cell proliferation inhibition, read-out: HEK293)","IC50 [2, 3]"
"Cc1cc(-c2ncnc3[nH]c4cc(N5CCN(CCc6ccc7c(c6)C6(CC6)C(=O)N7C6CCC(=O)NC6=O)CC5)ccc4c23)ccc1[C@@H](C)NC(=O)c1nc(C2(C)CC2)no1 (stereo partly drawn) [Example 123, N-((1R)-1-(4-(7-(4-(2-(1′-(2,6-dioxopiperidin-3-yl)-2′-oxospiro[cyclopropane-1,3′-indolin]-5′-yl)ethyl)piperazin-1-yl)-9H-pyrimido[4,5-b]indol-4-yl)-2-methylphenyl)ethyl)-3-(1-methylcyclopropyl)-1,2,4-oxadiazole-5-carboxamide]",0.192 nM,> 10000 nM,–,–
"5-(tert-butyl)-N—((R)-1-(4-(7-(4-(3-(4-((R)-2,6-dioxopiperidin-3-yl)phenyl)cyclobutyl)piperazin-1-yl)-9H-pyrimido[4,5-b]indol-4-yl)-3-fluoro-2-methylphenyl)ethyl)-1,2,4-oxadiazole-3-carboxamide [Example 32]",9.03 nM,–,> 10000 nM,–
"Cc1cc(-c2ncnc3[nH]c4cc(N5CCN(C6CC(c7ccc([C@@H]8CCC(=O)NC8=O)cc7)C6)CC5)ccc4c23)ccc1[C@@H](C)NC(=O)c1nc(C2(C)CC2)no1 (stereo partly drawn) [Example 67, N—((R)-1-(4-(7-(4-(3-(4-((S)-2,6-dioxopiperidin-3-yl)phenyl)cyclobutyl)piperazin-1-yl)-9H-pyrimido[4,5-b]indol-4-yl)-2-methylphenyl)ethyl)-3-(1-methylcyclopropyl)-1,2,4-oxadiazole-5-carboxamide]",1.27 nM,–,–,> 10000 nM
"Cc1cc(-c2ncnc3[nH]c4cc(N5CCN(CC6CCN(c7ccc(N8CCC(=O)NC8=O)cc7)CC6)CC5)ccc4c23)c(F)cc1[C@@H](C)NC(=O)c1nc(C2(C)CC2)no1 [Example 89, (R)—N-(1-(4-(7-(4-((1-(4-(2,4-dioxotetrahydropyrimidin-1(2H)-yl)phenyl)piperidin-4-yl)methyl)piperazin-1-yl)-9H-pyrimido[4,5-b]indol-4-yl)-5-fluoro-2-methylphenyl)ethyl)-3-(1-methylcyclopropyl)-1,2,4-oxadiazole-5-carboxamide]",0.55 nM,–,–,> 10000 nM
"Cc1c([C@@H](C)NC(=O)c2noc(C(C)(C)C)n2)ccc(-c2ncnc3[nH]c4cc(N5CCN(C6CCN(c7cccc(C8CCC(=O)NC8=O)c7)CC6)CC5)ccc4c23)c1F (stereo partly drawn) [Example 34, 5-(tert-butyl)-N-((1R)-1-(4-(7-(4-(1-(3-(2,6-dioxopiperidin-3-yl)phenyl)piperidin-4-yl)piperazin-1-yl)-9H-pyrimido[4,5-b]indol-4-yl)-3-fluoro-2-methylphenyl)ethyl)-1,2,4-oxadiazole-3-carboxamide]",1.23 nM,–,–,1440 nM
"Cc1cc(-c2ncnc3[nH]c4cc(C5CCN(CC6CCN(c7ccc(N8CCC(=O)NC8=O)cc7)CC6)C5)ccc4c23)ccc1[C@@H](C)NC(=O)c1nc(C(C)(C)C)no1 (stereo partly drawn) [Example 12, 3-(tert-butyl)-N-((1R)-1-(4-(7-(1-((1-(4-(2,4-dioxotetrahydropyrimidin-1(2H)-yl)phenyl)piperidin-4-yl)methyl)pyrrolidin-3-yl)-9H-pyrimido[4,5-b]indol-4-yl)-2-methylphenyl)ethyl)-1,2,4-oxadiazole-5-carboxamide]",0.613 nM,–,–,3640 nM
"Cc1cc(-c2ncnc3[nH]c4cc(N5CCN(Cc6ccc7c(c6)N(C6CCC(=O)NC6=O)C(=O)C76CC6)CC5)ccc4c23)c(F)cc1[C@@H](C)NC(=O)c1noc(C(C)(C)C)n1 (stereo partly drawn) [Example 91, 5-(tert-butyl)-N-((1R)-1-(4-(7-(4-((1′-(2,6-dioxopiperidin-3-yl)-2′-oxospiro[cyclopropane-1,3′-indolin]-6′-yl)methyl)piperazin-1-yl)-9H-pyrimido[4,5-b]indol-4-yl)-5-fluoro-2-methylphenyl)ethyl)-1,2,4-oxadiazole-3-carboxamide]",> 2000 nM,–,–,> 10000 nM
"Cc1cc(-c2ncnc3[nH]c4ccc(N5CCN(CC6CCN(c7ccc(N8CCC(=O)NC8=O)cc7)CC6)CC5)cc4c23)ccc1CNC(=O)c1nc(C(C)(C)C)no1 [Example 1, 3-(tert-butyl)-N-(4-(6-(4-((1-(4-(2,4-dioxotetrahydropyrimidin-1(2H)-yl)phenyl)piperidin-4-yl)methyl)piperazin-1-yl)-9H-pyrimido[4,5-b]indol-4-yl)-2-methylbenzyl)-1,2,4-oxadiazole-5-carboxamide]",4.94 nM,–,–,> 10000 nM
"Cc1cc(-c2ncnc3[nH]c4cc(N5CCN(CC6CCN(c7ccc(N8CCC(=O)NC8=O)cn7)CC6)CC5)ccc4c23)ccc1[C@@H](C)NC(=O)c1nc(C(C)(C)C)no1 [Example 7, (R)-3-(tert-butyl)-N-(1-(4-(7-(4-((1-(5-(2,4-dioxotetrahydropyrimidin-1(2H)-yl)pyridin-2-yl)piperidin-4-yl)methyl)piperazin-1-yl)-9H-pyrimido[4,5-b]indol-4-yl)-2-methylphenyl)ethyl)-1,2,4-oxadiazole-5-carboxamide]",1.27 nM,–,–,> 10000 nM
"Cc1cc(-c2ncnc3[nH]c4cc([C@H]5CCN(CC6CCN(c7ccc(N8CCC(=O)NC8=O)cc7)CC6)C5)ccc4c23)ccc1[C@@H](C)NC(=O)c1nc(C(C)(C)C)no1 [Example 14, 3-(tert-butyl)-N—((R)-1-(4-(7-((R)-1-((1-(4-(2,4-dioxotetrahydropyrimidin-1(2H)-yl)phenyl)piperidin-4-yl)methyl)pyrrolidin-3-yl)-9H-pyrimido[4,5-b]indol-4-yl)-2-methylphenyl)ethyl)-1,2,4-oxadiazole-5-carboxamide]",0.495 nM,–,–,3340 nM
"Cc1c([C@@H](C)NC(=O)c2noc(C(C)(C)C)n2)ccc(-c2ncnc3[nH]c4cc(N5CCN(CC6CCN(Cc7ccc8c(c7)C(C)(C)C(=O)N8C7CCC(=O)NC7=O)CC6)CC5)ccc4c23)c1F (stereo partly drawn) [Example 98, 5-(tert-butyl)-N-((1R)-1-(4-(7-(4-((1-((1-(2,6-dioxopiperidin-3-yl)-3,3-dimethyl-2-oxoindolin-5-yl)methyl)piperidin-4-yl)methyl)piperazin-1-yl)-9H-pyrimido[4,5-b]indol-4-yl)-3-fluoro-2-methylphenyl)ethyl)-1,2,4-oxadiazole-3-carboxamide]",1.97 nM,–,–,7280 nM
"Cc1c([C@@H](C)NC(=O)c2noc(C(C)(C)C)n2)ccc(-c2ncnc3[nH]c4cc(N5CCN(C6CC(c7ccc(N8CCC(=O)NC8=O)cc7)C6)CC5)ccc4c23)c1F (stereo partly drawn) [Example 33, (R)-5-(tert-butyl)-N-(1-(4-(7-(4-(3-(4-(2,4-dioxotetrahydropyrimidin-1(2H)-yl)phenyl)cyclobutyl)piperazin-1-yl)-9H-pyrimido[4,5-b]indol-4-yl)-3-fluoro-2-methylphenyl)ethyl)-1,2,4-oxadiazole-3-carboxamide]",3.67 nM,–,–,> 10000 nM
"COc1cc2c(cc1N1CCN(Cc3ccc(SC4CCC(=O)NC4=O)cc3)CC1)[nH]c1ncnc(-c3ccc([C@@H](C)NC(=O)c4nc(C5(C)CC5)no4)c(C)c3)c12 (stereo partly drawn) [Example 77, N-((1R)-1-(4-(7-(4-(4-((2,6-dioxopiperidin-3-yl)thio)benzyl)piperazin-1-yl)-6-methoxy-9H-pyrimido[4,5-b]indol-4-yl)-2-methylphenyl)ethyl)-3-(1-methylcyclopropyl)-1,2,4-oxadiazole-5-carboxamide]",8.48 nM,–,–,> 10000 nM
